In PubChem BioAssay AID1549 (Sanford-Burnham Center for Chemical Genomics, 2009) one finds Kd data, which are given here for 76 molecules.

The source made the active and inactive calls. The rule behind the calls is not given here. Some results are limits rather than exact numbers.

This test concerns the target Influenza A virus M2 proton channel (A/TW/4845/1999 H1N1). Nature of the test: NMR binding screen, influenza A virus M2 proton channel, Kd (AID 1549). The note with it: M2 protein.
For `Cc1cc(NC(=O)Cc2c(F)cccc2Cl)no1`, the Kd is > 4 mM (inactive).

With `c1ccc2[nH]c(NCCN3CCOCC3)nc2c1`, the Kd was > 4 mM (inactive).

As to `CCOC(=O)c1cnc2cc(C)nn2c1C`, the Kd is > 4 mM (inactive).

As for `O=C(O)CCC(=O)Nc1ccccn1`, the Kd is > 4 mM (inactive).

With `O=C(O)C1=CCCNC1`, the Kd is > 4 mM (inactive).

For `CC(=O)Nc1nc(-c2cccs2)cs1`, the Kd was > 4 mM (inactive).

For the molecule `O=S1(=O)C=CC(N2CCCCC2)C1` (stereo unspecified), the Kd was > 4 mM (inactive).

In the case of `O=C1C2C3C=CC(C3)C2C(=O)N1CCO` (stereo unspecified), the Kd was > 4 mM (inactive).

Take `CC1(C)C(=O)C=C[C@@]2(C)C1C=C[C@]1(C)C2CC[C@@]2(C)[C@H](c3ccoc3)OC(=O)C3OC321` (stereo partly specified): the Kd was > 4 mM (inactive).

`Cc1cccc(C)c1N1C(=O)CCC1=O`: the Kd was > 4 mM (inactive).

Take `CS(=O)(=O)N/N=C/c1cccs1`: the Kd is > 4 mM (inactive).

As to `Cc1ccc(C)c(C(=O)n2cnnc2N)c1`, the Kd is > 4 mM (inactive).

As for `NC(Cc1c[nH]c2ccccc12)C(=O)O` (stereo unspecified), the Kd was > 4 mM (inactive).

Consider `COC(=O)CCC(C)[C@H]1CCC2C3C(C[C@H](O)[C@@]21C)[C@@]1(C)CC[C@@H](O)C[C@H]1C[C@H]3O` (stereo partly specified), for which the Kd was > 4 mM (inactive).

As to `Cc1nnc(Nc2ccc(S(N)(=O)=O)cc2)[nH]c1=O`, the Kd is > 4 mM (inactive).

For the molecule `Nc1nnc(C(F)(F)F)s1`, the Kd was > 4 mM (inactive).

Consider `CN(C)C(=O)C12CCC(C)(C(=O)O1)C2(C)C` (stereo unspecified), for which the Kd was > 4 mM (inactive).

`Cc1c(C(=O)O)cnn1-c1ccccc1`: the Kd was > 4 mM (inactive).

For `O=c1oc2c(O)c(O)cc3c(=O)oc4c(O)c(O)cc1c4c23`, the Kd is > 4 mM (inactive).

Take `O=C1NC(=O)C(C(C[N+](=O)[O-])c2ccc(O)cc2)C(=O)N1` (stereo unspecified): the Kd is > 4 mM (inactive).

In the case of `OCc1sccc1-n1cccc1`, the Kd was > 4 mM (inactive).

With `NC1=NC(=O)/C(=C/c2ccccc2[N+](=O)[O-])S1`, the Kd was > 4 mM (inactive).

As to `COc1ccc2cc1Oc1ccc(cc1)C[C@H]1c3cc(c(OC)cc3CCN1C)Oc1c(OC)c(OC)cc3c1[C@H](C2)N(C)CC3`, the Kd is > 4 mM (inactive).

In the case of `COC(=O)c1ccccc1C`, the Kd is > 4 mM (inactive).

As to `OCc1ccc2c(c1)OCO2`, the Kd was > 4 mM (inactive).

In the case of `Cn1ncc(SCc2ccco2)c(Cl)c1=O`, the Kd is > 4 mM (inactive).

In the case of `COC(=O)c1ccc2snnc2c1`, the Kd was > 4 mM (inactive).

Turning to `CC(=O)O[C@H]1C[C@@H](OC(C)=O)C(C)(C)C2C[C@@H](O)[C@]3(C)C(CC[C@@]4(C)[C@H](c5ccoc5)OC(=O)[C@H]5O[C@]543)[C@]21C` (stereo partly specified), the Kd was > 4 mM (inactive).

Consider `NS(=O)(=O)c1ccc(N=C2NC(=O)CS2)cc1`, for which the Kd is > 4 mM (inactive).

As for `COc1cc(C2NC(=S)NC(C)=C2C(C)=O)ccc1O` (stereo unspecified), the Kd is > 4 mM (inactive).

In the case of `COc1cccc(/C=C/C(=O)O)c1C(C)C`, the Kd is > 4 mM (inactive).

Regarding `CC(=O)Nc1cccc(N2CCCC2=O)c1`, the Kd is > 4 mM (inactive).

Consider `CN(C)c1ccc(C2CC(=O)CC(=O)C2)cc1`, for which the Kd is > 4 mM (inactive).

With `CNC(=O)C(=O)Nc1ccc(C)c(C)c1`, the Kd is > 4 mM (inactive).

As to `Cc1cc(C(=O)N2CCN(S(C)(=O)=O)CC2)cs1`, the Kd was > 4 mM (inactive).

Turning to `CC(=O)Nc1ccc2c(c1)CCCC2=O`, the Kd is > 4 mM (inactive).

On to `CCOC(=O)C1CN(C)CCN1C` (stereo unspecified), for which the Kd was > 4 mM (inactive).

In the case of `O=C(O)c1ccc(-n2cncn2)cc1`, the Kd is > 4 mM (inactive).

Turning to `O=C(Nc1ccc(F)cc1F)c1ccco1`, the Kd was > 4 mM (inactive).

Consider `Cn1nc(C(=O)NCc2cccnc2)c2ccccc2c1=O`, for which the Kd is > 4 mM (inactive).

In the case of `O=C(NCc1cccs1)c1ccc2c(c1)OCCO2`, the Kd is > 4 mM (inactive).

`Cc1cccc(-n2c(N)cc(=O)[nH]c2=S)c1`: the Kd was > 4 mM (inactive).

As for `O=c1[nH]c2ccccc2c(=O)n1CCCO`, the Kd was > 4 mM (inactive).

Consider `O=C(O)CC1C(=O)NCCN1Cc1ccccc1` (stereo unspecified), for which the Kd was > 4 mM (inactive).

As for `Cn1nc(C(C)(C)C)cc1N`, the Kd is > 4 mM (inactive).

As for `NC(=O)c1ccccc1NC(=O)c1cccnc1`, the Kd was > 4 mM (inactive).

In the case of `O=S(=O)(N1CCOCC1)n1nnc2ccccc21`, the Kd was > 4 mM (inactive).

Regarding `O=C1NC(=S)S/C1=C/c1ccncc1`, the Kd was > 4 mM (inactive).

Take `O=C(c1ncc[nH]1)c1ccccc1C(=O)N1CCOCC1`: the Kd was > 4 mM (inactive).

Take `O=C(O)Cn1cc(C(F)(F)F)ccc1=O`: the Kd is > 4 mM (inactive).

Regarding `CS(=O)(=O)Cc1ccccc1`, the Kd is > 4 mM (inactive).

In the case of `NC(=O)c1ccsc1NC(=O)c1cccnc1`, the Kd was > 4 mM (inactive).

For `CN1CCN(CC(=O)N2CCc3ccccc32)CC1`, the Kd is > 4 mM (inactive).

Turning to `Cn1cnc2cc(NC(=O)c3ccco3)ccc21`, the Kd is > 4 mM (inactive).

For the molecule `CC(=O)c1ccc(-n2ccnc2)cc1`, the Kd was > 4 mM (inactive).

For `O=C1Cc2ccccc2N1c1ccccc1`, the Kd is > 4 mM (inactive).

Take `NC(=O)c1oc2ccccc2c1N`: the Kd is > 4 mM (inactive).

As to `O=C1c2ccncc2C(=O)N1CNc1ccccn1`, the Kd is > 4 mM (inactive).

On to `CCN(CC)S(=O)(=O)c1cccc2nsnc12`, for which the Kd is > 4 mM (inactive).

`CC(C)C(=O)NC(=S)N1CCOCC1`: the Kd was > 4 mM (inactive).

`Cn1c(O)c(/C=C2\C=CC=N2)c(=O)[nH]c1=S`: the Kd was > 4 mM (inactive).

In the case of `CC(C)(C)CC(=O)NC1=NCCS1`, the Kd was > 4 mM (inactive).

In the case of `CN1C(=O)C2C=CC1C1C(=O)N(c3ccccc3)C(=O)C21` (stereo unspecified), the Kd was > 4 mM (inactive).

With `COC(=O)Cn1c2ccccc2c2nc(C)sc21`, the Kd is > 4 mM (inactive).

`COc1ccccc1CNc1nc2nc(C)cc(=O)n2[nH]1`: the Kd was > 4 mM (inactive).

For `OCCNC(=S)Nc1ccc(F)cc1`, the Kd is > 4 mM (inactive).

For the molecule `O=C(O)CN1C(=O)c2cccc([N+](=O)[O-])c2C1=O`, the Kd was > 4 mM (inactive).

With `CNc1nc(SC)nc(N2CCOCC2)n1`, the Kd was > 4 mM (inactive).

Regarding `COCC(=O)Nc1cccc(Br)c1`, the Kd is > 4 mM (inactive).

For the molecule `CC(=O)Nc1ccc(N2CCOCC2)cc1`, the Kd was > 4 mM (inactive).

For `CC(=O)Nc1cccc(NC(=O)c2cccnc2)c1`, the Kd was > 4 mM (inactive).

For `CN(c1ccccc1C(=O)N1CCCC1)S(C)(=O)=O`, the Kd is > 4 mM (inactive).

As for `O=C(NC1=NCCS1)c1cccc(F)c1`, the Kd is > 4 mM (inactive).

Consider `Cc1cc(=O)[nH]c(N2CCCCC2)n1`, for which the Kd is > 4 mM (inactive).

With `CC1(C)N([O-])c2cc([N+](=O)[O-])ccc2[N+]1=O`, the Kd was > 4 mM (inactive).

Regarding `COc1cc(C(=O)NCC2CCCO2)cc(OC)c1OC` (stereo unspecified), the Kd was > 4 mM (inactive).
